# Test results as given in US12544372B2, “Methods of treating rheumatoid arthritis, chronic spontaneous urticaria, and systemic lupus erythematosis using an inhibitor of Bruton's tyrosine kinase” (Genentech, Inc., priority 2019, dated 2026).
# Test system: patients with moderate to severe active rheumatoid arthritis
# Assay: Phase II RA study, Cohort 1 (inadequate response to MTX): clinical efficacy (ACR50, DAS28-3-CRP)
# Type: in vivo, human
# Conditions: for DAS 28-3 (CRP) Adjusted Mean / DAS 28-3 (CRP) Difference (d): Week 12; for ACR50 Responders / ACR50 Weighted Difference vs Placebo: Week 12 Day 84; for DAS 28-3 (CRP) Difference (d): versus placebo
# Description: A Two-Cohort Randomized Phase II, Double-Blind, Parallel Group Study in Patients with Active Rheumatoid Arthritis Evaluating the Efficacy and Safety of Fenebrutinib Compared with Placebo and Adalimumab in Patients with an Inadequate Response to Previous Methotrexate Therapy (Cohort 1) and Compared with Placebo in Patients with an Inadequate Response or Intolerance to Previous TNF Therapy (Cohort 2)
# This study was designed to evaluate the efficacy and safety of fenebrutinib compared with placebo (Cohorts 1 and 2) and compared with adalimumab (ADA) (Cohort 1), each in combination with methotrexate (MTX), in patients with moderate to severe active rheumatoid arthritis (RA). Specific objectives and corresponding endpoints for the study are outlined below.
# The study was a multicenter, Phase II, randomized, double-blind, placebo-controlled, active comparator (Cohort 1 only), parallel-group, dose-ranging study to evaluate the efficacy and safety of fenebrutinib in patients with moderate to severe active RA and an inadequate response to previous MTX therapy (Cohort 1) or MTX and TNF therapy who may have also had exposure to no more than one non-TNF inhibitor biologic (Cohort 2). Moderate to severe active RA was defined by ≥6 tender/painful joints on motion (68 joint count) and ≥6 swollen joints (66 joint count) at both screening and Day 1 (randomization), as well as a high sensitivity C-reactive protein (hsCRP)≥0. 400 mg/dL for Cohort 1 a hsCRP≥0.650 mg/dL for Cohort 2 at screening.
# The study enrolled 578 patients. […] After a screening period of up to 28 days, patients in both cohorts received blinded study drug (oral fenebrutinib or matching placebo) for 12 weeks, after which they had the option to enter an 8 week follow-up period or enroll into an open-label extension (OLE) study. In addition to study drug, patients in Cohort 1 were also treated with subcutaneous (SC) comparatory drug (ADA or placebo).
# Cohort 1 treatment regimens. […]
# Disease Activity Score 28. The DAS 28-4 (CRP) and the DAS 28-4 (ESR) are calculated as follows. Assessments: (i) Tender joint count of 28 joints (TJC28), square-root transformed; (ii) Swollen joint count of 28 joints (SJC28), square-root transformed; (iii) Acute-phase reactant (erythrocyte sedimentation rate [ESR mm/hr] or high sensitivity C-reactive protein [hsCRP mg/L]), log transformed; (iv) Patient's global assessment of disease activity on visual analog scale (0-100 mm).
# The DAS 28 is calculated according to the following formulas: DAS 28(4)−ESR=0.56×SQRT(TJC28)+0.28SQRT(SJC28)+0.70×ln(ESR)+0.014×PtGA DAS 28(4)−CRP=0.56×SQRT(TJC28)+0.28SQRT(SJC28)+0.36×ln(CRP+1)+0.014×PtGA+0.96 • Total score: Range, 0.49-9.07 • Disease remission≤2.6 • Disease activity: Low≤3.2; Moderate d>3.2 and ≤5.1; High>5.1 (PtGA=patient's global assessment of disease activity; ln=natural logarithm; SQRT=square root)
# ACR Assessments. The ACR's definition for calculating improvement in RA (ACR20) is calculated as a 20% improvement in tender and swollen joint counts and a 20% improvement in 3 of the 5 remaining ACR-core set measures: patient and physician global assessments, pain, disability, and an acute-phase reactant. Similarly, ACR50 and ACR70 are calculated with the respective percent improvements. The Sponsor, on the basis of the component parts, will calculate the ACR score.
# The specific components of the ACR Assessments used in this study are as follows: Tender/Painful Joint Count (68), Swollen Joint Count (66), Patient's Assessment of Arthritis Pain, Patient's Global Assessment of Arthritis, Physician's Global Assessment of Arthritis, CRP and HAQ-DI.
smiles,measurement,setting,value
"C[C@H]1CN(C2COC2)CCN1c1ccc(Nc2cc(-c3ccnc(N4CCn5c(cc6c5CC(C)(C)C6)C4=O)c3CO)cn(C)c2=O)nc1 [fenebrutinib, (S)-2-(3′-(hydroxymethyl)-1-methyl-5-((5-(2-methyl-4-(oxetan-3-yl)piperazin-1-yl)pyridin-2-yl)amino)-6-oxo-1,6-dihydro-[3,4′-bipyridin]-2′-yl)-7,7-dimethyl-2,3,4,6,7,8-hexahydro-1H-cyclopenta[4,5]pyrrolo[1,2-a]pyrazin-1-one]",DAS 28-3 (CRP) Adjusted Mean,"Cohort 1, 50 mg QD",−1.54
same,ACR50 Responders,"Cohort 1, 50 mg QD",7 (17.5%)
same,ACR50 Weighted Difference vs Placebo,"Cohort 1, 50 mg QD",8.00
same,DAS 28-3 (CRP) Adjusted Mean,"Cohort 1, 150 mg QD",−1.74
same,ACR50 Responders,"Cohort 1, 150 mg QD",30 (27.5%)
same,ACR50 Weighted Difference vs Placebo,"Cohort 1, 150 mg QD",12.93
same,DAS 28-3 (CRP) Difference (d),"Cohort 1, 50 mg QD",−0.36
same,DAS 28-3 (CRP) Difference (d),"Cohort 1, 150 mg QD",−0.57
